*1 amine or outer side, *2 acyl side, *3 side chain or, on linkers, in order; H or OH if unused. Where a SMILES comes first, the peptide text is derived from it. Bridges are numbered along the chain shown (N, C = ends). [ ]: non-standard residue; d: D form. The star is where a group is joined. ξ: configuration not given here. Phe(4-COOH) = N[C@@H](Cc1ccc(C(=O)O)cc1)C(=O)O; Bip = N[C@@H](Cc1ccc(-c2ccccc2)cc1)C(=O)O; Morpholine(3S-CO) = O=C(O)[C@@H]1COCCN1; Phe(3-Me) = Cc1cccc(C[C@H](N)C(=O)O)c1; γGlu = O=C(O)[C@H](CCC(=O)[*:2])N[*:1]; Val(3-OH) = CC(C)(O)[C@H](N)C(=O)O; hArg = N=C(N)NCCCC[C@H](N)C(=O)O; 4Pal = N[C@@H](Cc1ccncc1)C(=O)O; Cha = N[C@@H](CC1CCCCC1)C(=O)O; Cit = NC(=O)NCCC[C@H](N)C(=O)O; Ile(3ξ) = CCC(C)[C@H](N)C(=O)O; Thr(3ξ) = CC(O)[C@H](N)C(=O)O; 12Ado = NCCCCCCCCCCCC(=O)O; Carboxymethyl = O=C(O)C*; NMeA = CN[C@@H](C)C(=O)O; Orn = NCCC[C@H](N)C(=O)O; Aun = NCCCCCCCCCCC(=O)O; Dab = NCC[C@H](N)C(=O)O; Abu = CC[C@H](N)C(=O)O; Dap = NC[C@H](N)C(=O)O; AEEA = NCCOCCOCC(=O)O
molecular target: T1, PD-1/PD-L1 interaction (PE-labeled human PD-L1-Ig binding to Jurkat cell line over-expressing human PD-1) (Homo sapiens, UniProt Q15116); assay: Jurkat-PD-1 Cell Binding High-Content Screening Assay (CBA); conditions: Jurkat-hPD-1 cells, PE-labeled PD-L1-Ig 20 nM final; read-out: Jurkat HPD1 PDL1 IC50
T1 construct: expressed in transfected cells; host or cells: Jurkat
T1 sequence (Q15116 25-288): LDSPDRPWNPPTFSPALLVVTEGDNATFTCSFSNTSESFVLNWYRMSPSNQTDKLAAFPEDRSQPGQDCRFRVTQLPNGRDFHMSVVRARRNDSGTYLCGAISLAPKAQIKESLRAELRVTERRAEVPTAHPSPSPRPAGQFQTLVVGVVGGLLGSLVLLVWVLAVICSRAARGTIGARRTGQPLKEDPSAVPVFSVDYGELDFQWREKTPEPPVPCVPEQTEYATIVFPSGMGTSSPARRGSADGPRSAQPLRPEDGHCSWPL
Summary of the method: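 Read-out: high-content imaging of cell-bound PE fluorescence, with Hoechst 33342 nuclear counterstain after paraformaldehyde fixation. Before labeled ligand (20 nM final, 1 h) was added, compound sat on the cells for 2 h at 37 °C in DMEM/10% FCS.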

Point of comparison: CC(C)C[C@@H]1NC(=O)[C@H](Cc2c[nH]c3ccccc23)NC(=O)[C@H](CC(=O)O)NC(=O)[C@H](Cc2ccncc2)NC(=O)[C@H](Cc2ccc(OCC(=O)O)cc2)NC(=O)CSC[C@@H](C(=O)N2CCOC[C@H]2C(=O)NCCCCCCCCCCC(=O)O)NC(=O)[C@H](CCCNC(N)=O)NC(=O)[C@H](C(C)C)NC(=O)[C@H](CC2CCCCC2)NC(=O)[C@H](CCN)NC(=O)[C@@H](CC(C)C)NC(=O)[C@H](C)N(C)C(=O)[C@H](C(C)C)NC(=O)[C@H](Cc2ccc(-c3ccccc3)cc2)NC1=O [Example 1223] ({CH2CO}-Y(Carboxymethyl)[4Pal]DWL[Bip]V[NMeA][dL][Dab][Cha]V[Cit]C[Morpholine(3S-CO)][Aun]-OH; thioether N-14), IC50 420 nM. Against it:
- Cc1cccc(C[C@@H]2NC(=O)[C@H](CC(=O)O)NC(=O)[C@H](Cc3ccc(OCC(=O)O)cc3)NC(=O)[C@H](C(C)O)NC(=O)CSC[C@@H](C(=O)N[C@@H](CCN)C(=O)NCCOCCOCC(=O)NCCCCCCCCCCC(=O)O)NC(=O)[C@H](Cc3ccc(OCC(=O)O)cc3)NC(=O)[C@H](C(C)C)NC(=O)[C@H](CC3CCCCC3)NC(=O)[C@H](CCN)NC(=O)[C@@H](CC(C)C)NC(=O)[C@H](C)N(C)C(=O)[C@H](Cc3ccc(OCC(=O)O)cc3)NC(=O)[C@H](Cc3ccc(-c4ccccc4)cc3)NC(=O)[C@H](Cc3ccc(C(=O)O)cc3)NC2=O)c1 (stereo partly drawn) [Example 2478] ({CH2CO}-[Thr(3ξ)]Y(Carboxymethyl)D[Phe(3-Me)][Phe(4-COOH)][Bip]Y(Carboxymethyl)[NMeA][dL][Dab][Cha]VY(Carboxymethyl)C[Dab][AEEA][Aun]-OH; thioether N-14) — 17-fold lower, 25.2 nM
- CC[C@@H]1NC(=O)[C@H](Cc2cccc(C)c2)NC(=O)[C@H](CC(=O)O)NC(=O)[C@H](Cc2ccc(OCC(=O)O)cc2)NC(=O)[C@H](CCN)NC(=O)CSC[C@@H](C(=O)N[C@@H](CCN)C(=O)NCCCCCCCCCCC(=O)O)NC(=O)[C@H](CO)NC(=O)[C@H](C(C)(C)O)NC(=O)[C@H](CC2CCCCC2)NC(=O)[C@H](CCN)NC(=O)[C@@H](CC(C)C)NC(=O)[C@H](C)N(C)C(=O)[C@H](Cc2ccc(OCC(=O)O)cc2)NC(=O)[C@H](Cc2ccc(-c3ccccc3)cc2)NC1=O [Example 1308] ({CH2CO}-[Dab]Y(Carboxymethyl)D[Phe(3-Me)][Abu][Bip]Y(Carboxymethyl)[NMeA][dL][Dab][Cha][Val(3-OH)]SC[Dab][Aun]-OH; thioether N-14) — 60-fold lower, 7 nM
- Cc1cccc(C[C@@H]2NC(=O)[C@H](CC(=O)O)NC(=O)[C@H](Cc3ccncc3)NC(=O)[C@H](Cc3ccc(OCC(=O)O)cc3)NC(=O)CSC[C@@H](C(=O)NCC(=O)N[C@@H](CCC(=O)NCCOCCOCC(=O)N[C@@H](CCC(=O)NCCOCCOCC(=O)NCCCCCCCCCCC(=O)O)C(=O)O)C(=O)O)NC(=O)[C@H](CO)NC(=O)[C@H](C(C)C)NC(=O)[C@H](CC(C)C)NC(=O)[C@H](CC(N)=O)NC(=O)[C@@H](CC(C)C)NC(=O)[C@H](C)N(C)C(=O)[C@H](C(C)C)NC(=O)[C@H](Cc3ccc(-c4ccccc4)cc3)NC(=O)[C@H](CC(C)C)NC2=O)c1 [Example 1016] ({CH2CO}-Y(Carboxymethyl)[4Pal]D[Phe(3-Me)]L[Bip]V[NMeA][dL]NLVSCG[γGlu][AEEA][γGlu][AEEA][Aun]-OH; thioether N-14) — 14-fold lower, 29.8 nM
- CCC(C)[C@@H]1NC(=O)[C@H](Cc2ccc(-c3ccccc3)cc2)NC(=O)[C@H](CC(C)C)NC(=O)[C@H](Cc2c[nH]c3ccccc23)NC(=O)[C@H](CC(=O)O)NC(=O)[C@H](Cc2ccc(OCC(=O)O)cc2)NC(=O)[C@H](C(C)O)NC(=O)CSC[C@@H](C(=O)NCCOCCOCC(=O)N[C@@H](CCCN)C(=O)NCCCCCCCCCCC(=O)O)NC(=O)[C@H](CO)NC(=O)[C@H](C(C)C)NC(=O)[C@H](CC(C)C)NC(=O)[C@H](CC(N)=O)NC(=O)[C@@H](CC(C)C)NC(=O)[C@H](C)N(C)C1=O (stereo partly drawn) [Example 2052] ({CH2CO}-[Thr(3ξ)]Y(Carboxymethyl)DWL[Bip][Ile(3ξ)][NMeA][dL]NLVSC[AEEA][Orn][Aun]-OH; thioether N-14) — 5.3-fold lower, 79.1 nM
- CC(C)C[C@@H]1NC(=O)[C@H](Cc2c[nH]c3ccccc23)NC(=O)[C@H](CC(=O)O)NC(=O)[C@H](Cc2ccc(C(=O)O)cc2)NC(=O)[C@H](Cc2ccc(OCC(=O)O)cc2)NC(=O)CSC[C@@H](C(=O)NCC(=O)N[C@@H](CN)C(=O)NCCCCCCCCCCC(=O)O)NC(=O)[C@H](CO)NC(=O)[C@H](C(C)C)NC(=O)[C@H](CC2CCCCC2)NC(=O)[C@H](CCN)NC(=O)[C@@H](CC(C)C)NC(=O)[C@H](C)N(C)C(=O)[C@H](C(C)C)NC(=O)[C@H](Cc2ccc(-c3ccccc3)cc2)NC1=O [Example 1036] ({CH2CO}-Y(Carboxymethyl)[Phe(4-COOH)]DWL[Bip]V[NMeA][dL][Dab][Cha]VSCG[Dap][Aun]-OH; thioether N-14) — 37-fold lower, 11.5 nM
- CC(C)C[C@H]1NC(=O)[C@H](C)N(C)C(=O)[C@H](Cc2ccc(OCC(=O)O)cc2)NC(=O)[C@H](Cc2ccc(-c3ccccc3)cc2)NC(=O)[C@H](Cc2ccc(OCC(=O)O)cc2)NC(=O)[C@H](Cc2c[nH]c3ccccc23)NC(=O)[C@H](CC(=O)O)NC(=O)[C@H](Cc2ccncc2)NC(=O)[C@H](Cc2ccc(OCC(=O)O)cc2)NC(=O)CSC[C@@H](C(=O)N[C@@H](CCCN)C(=O)NCCOCCOCC(=O)NCCCCCCCCCCC(=O)O)NC(=O)[C@H]([C@@H](C)O)NC(=O)[C@H](C(C)C)NC(=O)[C@H](CC2CCCCC2)NC(=O)[C@H](CCN)NC1=O [Example 1382] ({CH2CO}-Y(Carboxymethyl)[4Pal]DWY(Carboxymethyl)[Bip]Y(Carboxymethyl)[NMeA][dL][Dab][Cha]VTC[Orn][AEEA][Aun]-OH; thioether N-14) — 3.8-fold lower, 110 nM
- CC(C)C[C@H]1NC(=O)[C@H](C)N(C)C(=O)[C@H](C(C)C)NC(=O)[C@H](Cc2ccc(-c3ccccc3)cc2)NC(=O)[C@H](C(C)C)NC(=O)[C@H](Cc2c[nH]c3ccccc23)NC(=O)[C@H](CC(=O)O)NC(=O)[C@H](Cc2ccc(OCC(=O)O)cc2)NC(=O)[C@H](CCCCNC(=N)N)NC(=O)CSC[C@@H](C(=O)N[C@@H](CCN)C(=O)NCCCCCCCCCCC(=O)O)NC(=O)[C@H](CO)NC(=O)[C@H](C(C)C)NC(=O)[C@H](CC2CCCCC2)NC(=O)[C@H](CCN)NC1=O [Example 2191] ({CH2CO}-[hArg]Y(Carboxymethyl)DWV[Bip]V[NMeA][dL][Dab][Cha]VSC[Dab][Aun]-OH; thioether N-14) — 31-fold lower, 13.4 nM
- Cc1cccc(C[C@@H]2NC(=O)[C@H](CC(=O)O)NC(=O)[C@H](Cc3ccc(C(=O)O)cc3)NC(=O)[C@H](Cc3ccc(OCC(=O)O)cc3)NC(=O)CSC[C@@H](C(=O)N[C@@H](CCC(=O)O)C(=O)NCCCCCCCCCCC(=O)O)NC(=O)[C@H](CO)NC(=O)[C@H](C(C)C)NC(=O)[C@H](CC(C)C)NC(=O)[C@H](CC(N)=O)NC(=O)[C@@H](CC(C)C)NC(=O)[C@H](C)N(C)C(=O)[C@H](C(C)C)NC(=O)[C@H](Cc3ccc(-c4ccccc4)cc3)NC(=O)[C@H](CC(C)C)NC2=O)c1 [Example 1003] ({CH2CO}-Y(Carboxymethyl)[Phe(4-COOH)]D[Phe(3-Me)]L[Bip]V[NMeA][dL]NLVSCE[Aun]-OH; thioether N-14) — 21-fold lower, 20.1 nM
- Cc1cccc(C[C@@H]2NC(=O)[C@H](CC(=O)O)NC(=O)[C@H](Cc3ccc(OCC(=O)O)cc3)NC(=O)[C@H]([C@@H](C)O)NC(=O)CSC[C@@H](C(=O)N[C@@H](CCN)C(=O)NCCOCCOCC(=O)NCCCCCCCCCCC(=O)O)NC(=O)[C@H](CCCN)NC(=O)[C@H](C(C)C)NC(=O)[C@H](CC3CCCCC3)NC(=O)[C@H](CC(N)=O)NC(=O)[C@@H](CC(C)C)NC(=O)[C@H](C)N(C)C(=O)[C@H](Cc3ccc(OCC(=O)O)cc3)NC(=O)[C@H](Cc3ccc(-c4ccccc4)cc3)NC(=O)[C@H](Cc3ccc(OCC(=O)O)cc3)NC2=O)c1 [Example 1363] ({CH2CO}-TY(Carboxymethyl)D[Phe(3-Me)]Y(Carboxymethyl)[Bip]Y(Carboxymethyl)[NMeA][dL]N[Cha]V[Orn]C[Dab][AEEA][Aun]-OH; thioether N-14) — 17-fold lower, 25.3 nM
- Cc1cccc(C[C@@H]2NC(=O)[C@H](CC(=O)O)NC(=O)[C@H](Cc3ccc(C(=O)O)cc3)NC(=O)[C@H](Cc3ccncc3)NC(=O)CSC[C@@H](C(=O)N[C@@H](CC(N)=O)C(=O)NCCOCCOCC(=O)NCCCCCCCCCCC(=O)O)NC(=O)[C@H](CCC(=O)O)NC(=O)[C@H](C(C)(C)O)NC(=O)[C@H](CC3CCCCC3)NC(=O)[C@H](CCN)NC(=O)[C@@H](CC(C)C)NC(=O)[C@H](C)N(C)C(=O)[C@H](Cc3ccc(OCC(=O)O)cc3)NC(=O)[C@H](Cc3ccc(-c4ccccc4)cc3)NC(=O)[C@H](Cc3ccc(OCC(=O)O)cc3)NC2=O)c1 [Example 1428] ({CH2CO}-[4Pal][Phe(4-COOH)]D[Phe(3-Me)]Y(Carboxymethyl)[Bip]Y(Carboxymethyl)[NMeA][dL][Dab][Cha][Val(3-OH)]ECN[AEEA][Aun]-OH; thioether N-14) — within 1.5-fold, 429 nM

same assay, conditions: PE-labeled PD-L1-Ig 20 nM final, Jurkat-hPD-1 cells; read-out: Jurkat HPD1 PDL1 IC50

With Cc1cccc(C[C@@H]2NC(=O)[C@H](CC(=O)O)NC(=O)[C@H](Cc3ccc(OCC(=O)O)cc3)NC(=O)[C@H]([C@@H](C)O)NC(=O)CSC[C@@H](C(=O)N[C@@H](CCN)C(=O)NCCOCCOCC(=O)NCCCCCCCCCCCC(=O)O)NC(=O)[C@@H](CCC(=O)O)NC(=O)[C@H](C(C)C)NC(=O)[C@H](CC3CCCCC3)NC(=O)[C@H](CCN)NC(=O)[C@@H](CC(C)C)NC(=O)[C@H](C)N(C)C(=O)[C@H](Cc3ccc(OCC(=O)O)cc3)NC(=O)[C@H](Cc3ccc(-c4ccccc4)cc3)NC(=O)[C@H](Cc3ccc(OCC(=O)O)cc3)NC2=O)c1 [Example 2668] ({CH2CO}-TY(Carboxymethyl)D[Phe(3-Me)]Y(Carboxymethyl)[Bip]Y(Carboxymethyl)[NMeA][dL][Dab][Cha]V[dE]C[Dab][AEEA][12Ado]-OH; thioether N-14) the IC50 was 2.6 nM.

Source: US20260070945A1, “MACROCYCLIC IMMUNOMODULATORS” (Bristol-Myers Squibb Company, priority 2022, published 2026)
